Data on 20 compounds can be found in patent EP1984353B1, “AURORA KINASE MODULATORS AND METHOD OF USE” (Amgen, Inc, priority 2006, dated 2007).

Read-outs that look alike come from different tables or passages of the source.

Assay [1] deals with T1, AuroraB (Homo sapiens, UniProt Q96GD4).
T1 construct: 20 µL of AuroraB FL His; His
Nature of the assay: AuroraB Homogeneous Time Resolved Fluorescent (HTRF) kinase assay. Type of assay: biochemical. The following applies: average, read-out: AurB_ _IC50_IP (Avg). In a few lines: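 Full-length His-tagged AuroraB (400 pM) phosphorylates 0.1 µM biotinylated Histone H3 with 23 µM ATP (Km(app)) in HEPES pH 7.5 with Mg/Mn, about 90 min. EDTA-quenched; Eu-anti-phosphoHistoneH3 and SA-APC HTRF, 655/615 nm ratio as phosphorylation.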
On the technique in general: TR-FRET usually uses a lanthanide donor and a delayed reading to cut background.

In assay [2] the target is T2, AuroraA-TPX2 (Homo sapiens, UniProt O14965).
T2 construct: 20 µL of AuroraA-TPX2 KD GST; GST
T2 sequence (O14965 133-383 limits assumed): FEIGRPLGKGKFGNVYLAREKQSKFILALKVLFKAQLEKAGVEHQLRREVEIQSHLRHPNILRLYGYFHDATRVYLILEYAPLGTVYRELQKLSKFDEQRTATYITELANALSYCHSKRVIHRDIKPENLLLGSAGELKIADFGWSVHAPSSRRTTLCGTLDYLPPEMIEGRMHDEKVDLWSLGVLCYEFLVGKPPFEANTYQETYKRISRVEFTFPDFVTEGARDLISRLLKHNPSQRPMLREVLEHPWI
T2 sequence (Q9ULW0 1-43 partner limits assumed): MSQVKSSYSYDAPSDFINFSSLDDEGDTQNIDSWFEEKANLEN
Nature of the assay: AuroraA-TPX2 Homogeneous Time Resolved Fluorescent (HTRF) kinase assay. Type of assay: biochemical. The following applies: average, read-out: AurA/TP X2_ IC50_IP (Avg). In a few lines: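 Aurora-A/TPX2 phosphorylates biotinylated PLK peptide (about 1 µM) with ATP for about 120 min in 60 mM HEPES pH 7.5, 10 mM MgCl2, 2 mM DTT. EDTA quench, overnight equilibration with Eu-anti-phosphoPLK antibody and SA-APC; HTRF read at 615/655 nm after 320 nm excitation.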

Setting [3] is: given as numbers, unit inferred.

T1 sequence (Q96GD4 whole entry): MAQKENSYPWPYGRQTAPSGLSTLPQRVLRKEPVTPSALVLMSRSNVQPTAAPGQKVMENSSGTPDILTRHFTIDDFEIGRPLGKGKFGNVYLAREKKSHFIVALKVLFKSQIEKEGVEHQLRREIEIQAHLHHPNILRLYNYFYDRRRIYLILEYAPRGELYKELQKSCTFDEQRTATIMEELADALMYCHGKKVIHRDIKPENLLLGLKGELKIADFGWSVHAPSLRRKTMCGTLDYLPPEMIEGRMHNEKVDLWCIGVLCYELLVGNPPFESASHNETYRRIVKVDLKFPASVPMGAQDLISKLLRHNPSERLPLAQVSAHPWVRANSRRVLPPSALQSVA

Turning to `Nc1nccc(-c2cccnc2Oc2ccc(Nc3nnc(-c4ccccc4OP(=O)(O)O)c4ccccc34)cn2)n1` [compound 391, 2-(4-((6-((3-(2-amino-4-pyrimidinyl)-2-pyridinyl)oxy)-3-pyridinyl)amino)-1-phthalazinyl)phenyl dihydrogen phosphate], the IC50 in assay [1] (setting [3]) is 641 nM; in assay [2] (setting [3]), 1600 nM.
For `Nc1nccc(-c2cccnc2Oc2ccc(Nc3nnc(-c4cccc(OP(=O)(O)O)c4)c4ccccc34)cn2)n1` [compound 392, 3-(4-((6-((3-(2-amino-4-pyrimidinyl)-2-pyridinyl)oxy)-3-pyridinyl)amino)-1-phthalazinyl)phenyl dihydrogen phosphate], the IC50 in assay [1] (given as class symbols) and in assay [2] (given as class symbols) was 500 to 2500 nM each time.
In the case of `Nc1nccc(-c2cccnc2Oc2ccc(Nc3nnc(N4CCNCC4)c4ccccc34)cc2)n1` [compound 393, N-(4-((3-(2-amino-4-pyrimidinyl)-2-pyridinyl)oxy)phenyl)-4-(1-piperazinyl)-1-phthalazinamine], the IC50 in assay [1] (given as class symbols) was 100 to 500 nM; in assay [2] (given as class symbols), 500 to 2500 nM.
For `Nc1nccc(-c2cccnc2Oc2ccc(Nc3nnc(N4CCN5CCCC5C4)c4ccccc34)cc2)n1` (stereo not shown) [compound 394, N-(4-((3-(2-amino-4-pyrimidinyl)-2-pyridinyl)oxy)phenyl)-4-(hexahydropyrrolo[1,2-a]pyrazin-2(1H)-yl)-1-phthalazinamine] the same measures were at most 100 nM and at most 100 nM.
For `CC1CN(c2nnc(Nc3ccc(Oc4ncccc4-c4ccnc(N)n4)cc3)c3ccccc23)CCN1C` (stereo not shown) [compound 395, N-(4-((3-(2-amino-4-pyrimidinyl)-2-pyridinyl)oxy)phenyl)-4-(3,4-dimethyl-1-piperazinyl)-1-phthalazinamine] the same measures were at most 100 nM and at most 100 nM.
On to `Cc1ccc(-c2nnc(Nc3ccc(Oc4ncccc4-c4ccnc(N)n4)cc3)c3ccccc23)nc1` [compound 396, N-(4-((3-(2-amino-4-pyrimidinyl)-2-pyridinyl)oxy)phenyl)-4-(5-methyl-2-pyridinyl)-1-phthalazinamine], for which the results for the IC50 in assay [1] (setting [3]) and in assay [2] (setting [3]) were 0.8 nM and 4.7 nM, respectively.
For the compound `Nc1nccc(-c2cccnc2Oc2ccc(Nc3nnc(N4CCN5CCCC5C4)c4ccccc34)cn2)n1` (stereo not shown) [compound 397, N-(6-((3-(2-amino-4-pyrimidinyl)-2-pyridinyl)oxy)-3-pyridinyl)-4-(hexahydropyrrolo[1,2-a]pyrazin-2(1H)-yl)-1-phthalazinamine], the IC50 in assay [1] (given as class symbols) and in assay [2] (given as class symbols) was at most 100 nM throughout.
For `C[C@@H]1CN(c2nnc(Nc3ccc(Oc4ncccc4-c4ccnc(N)n4)cc3)c3ccccc23)CCN1` [compound 399, N-(4-((3-(2-amino-4-pyrimidinyl)-2-pyridinyl)oxy)phenyl)-4-((3R)-3-methyl-1-piperazinyl)-1-phthalazinamine], the IC50 in assay [1] (given as class symbols) was in the range of 100 to 500 nM; in assay [2] (given as class symbols), 500 to 2500 nM.
For `Fc1cnc(NCCCN2CCNCC2)nc1-c1cccnc1Oc1ccc(Nc2nnc(-c3ccccc3)c3ccccc23)cc1` [compound 400, N-(4-((3-(5-fluoro-2-((3-(1-piperazinyl)propyl)amino)-4-pyrimidinyl)-2-pyridinyl)oxy)phenyl)-4-phenyl-1-phthalazinamine] the same measures were at most 100 nM and 100 to 500 nM.
For `Nc1nccc(-c2cccnc2Oc2ccc(Nc3nnc(N4CCN5CCC[C@H]5C4)c4ccccc34)cc2)n1` [compound 401, N-(4-((3-(2-amino-4-pyrimidinyl)-2-pyridinyl)oxy)phenyl)-4-((8aS)-hexahydropyrrolo[1,2-a]pyrazin-2(1H)-yl)-1-phthalazinamine] the same measures were at most 100 nM and at most 100 nM.
For `Nc1nccc(-c2cccnc2Oc2ccc(Nc3nnc(N4CCN5CCC[C@H]5C4)c4ccccc34)cn2)n1` [compound 402, N-(6-((3-(2-amino-4-pyrimidinyl)-2-pyridinyl)oxy)-3-pyridinyl)-4-((8aS)-hexahydropyrrolo[1,2-a]pyrazin-2(1H)-yl)-1-phthalazinamine] the same measures were at most 100 nM and at most 100 nM.
As to `Fc1cnc(NCCCN2CCCCC2)nc1-c1cccnc1Oc1ccc(Nc2nnc(-c3ccccc3)c3ccccc23)cc1` [compound 403, N-(4-((3-(5-fluoro-2-((3-(1-piperidinyl)propyl)amino)-4-pyrimidinyl)-2-pyridinyl)oxy)phenyl)-4-phenyl-1-phthalazinamine], the IC50 in assay [1] (given as class symbols) and in assay [2] (given as class symbols) was at most 100 nM each time.
With `Cc1ccnc(-c2nnc(Nc3ccc(Oc4ncccc4-c4ccnc(N)n4)cc3)c3ccccc23)c1` [compound 404, N-(4-((3-(2-amino-4-pyrimidinyl)-2-pyridinyl)oxy)phenyl)-4-(4-methyl-2-pyridinyl)-1-phthalazinamine], the IC50 in assay [1] (given as class symbols) was at most 100 nM; in assay [2] (given as class symbols) it was 100 to 500 nM.
For `Cc1ccnc(-c2nnc(Nc3ccc(Oc4ncccc4-c4ccnc(N)n4)nc3)c3ccccc23)c1` [compound 405, N-(6-((3-(2-amino-4-pyrimidinyl)-2-pyridinyl)oxy)-3-pyridinyl)-4-(4-methyl-2-pyridinyl)-1-phthalazinamine] the same measures were at most 100 nM and 100 to 500 nM.
For `Nc1nccc(-c2cccnc2Oc2ccc(Nc3nnc(N4CCN5CCCCC5C4)c4ccccc34)cc2)n1` (stereo not shown) [compound 406, N-(4-((3-(2-amino-4-pyrimidinyl)-2-pyridinyl)oxy)phenyl)-4-(octahydro-2H-pyrido[1,2-a]pyrazin-2-yl)-1-phthalazinamine], the IC50 in assay [1] (given as class symbols) and in assay [2] (given as class symbols) was at most 100 nM in each case.
As for `Cc1ccnn1-c1nnc(Nc2ccc(Oc3ncccc3-c3ccnc(N)n3)cc2)c2ccccc12` [compound 407, N-(4-((3-(2-amino-4-pyrimidinyl)-2-pyridinyl)oxy)phenyl)-4-(5-methyl-1H-pyrazol-1-yl)-1-phthalazinamine], the IC50 in assay [1] (given as class symbols) and in assay [2] (given as class symbols) was at most 100 nM throughout.
On to `Cc1ccn(-c2nnc(Nc3ccc(Oc4ncccc4-c4ccnc(N)n4)cc3)c3ccccc23)n1` [compound 408, N-(4-((3-(2-amino-4-pyrimidinyl)-2-pyridinyl)oxy)phenyl)-4-(3-methyl-1H-pyrazol-1-yl)-1-phthalazinamine], for which the IC50 in assay [1] (given as class symbols) and in assay [2] (given as class symbols) was at most 100 nM throughout.
Take `Cc1ccnc(-c2nnc(Nc3ccc(Oc4ncccc4-c4ccnc(NCCCN5CCN(C)CC5)n4)cc3)c3ccccc23)c1` [compound 409, N-(4-((3-(2-((3-(4-methyl-1-piperazinyl)propyl)amino)-4-pyrimidinyl)-2-pyridinyl)oxy)phenyl)-4-(4-methyl-2-pyridinyl)-1-phthalazinamine]: the IC50 in assay [1] (given as class symbols) is at most 100 nM; in assay [2] (given as class symbols), 100 to 500 nM.
As for `COc1cccc(-c2nnc(Nc3ccc(Oc4ncccc4-c4ccnc(NCCCN5CCN(C)CC5)n4)cc3)c3ccccc23)n1` [compound 410, 4-(6-(methyloxy)-2-pyridinyl)-N-(4-((3-(2-((3-(4-methyl-1-piperazinyl)propyl)amino)-4-pyrimidinyl)-2-pyridinyl)oxy)phenyl)-1-phthalazinamine], the IC50 in assay [1] (given as class symbols) and in assay [2] (given as class symbols) was at most 100 nM in each case.
With `C[C@H]1CN(CCCNc2nccc(-c3cccnc3Oc3ccc(Nc4nnc(-c5ccccc5)c5ccccc45)cc3)n2)CCN1` [compound 411, N-(4-((3-(2-((3-((3S)-3-methyl-1-piperazinyl)propyl)amino)-4-pyrimidinyl)-2-pyridinyl)oxy)phenyl)-4-phenyl-1-phthalazinamine], the IC50 in assay [1] (given as class symbols) and in assay [2] (given as class symbols) was at most 100 nM each time.
